Assay results from paper PMC4721923 (PLoS ONE, 2015).
Like-named read-outs stand apart in the source and are kept apart here.

How the values were obtained:
[1] = molecular target: T1, OCT3 (Homo sapiens, UniProt O75751); assay: Flow cytometric ASP+-uptake inhibition, HEK-OCT3; format: cell-based; conditions: for potency relative to TPA at OCT3: from IC50 values, p ≤ 0.05
T1 construct: expressed in transfected cells; host or cells: HEK293 (HEK-OCT3)
T1 sequence (O75751 1-556): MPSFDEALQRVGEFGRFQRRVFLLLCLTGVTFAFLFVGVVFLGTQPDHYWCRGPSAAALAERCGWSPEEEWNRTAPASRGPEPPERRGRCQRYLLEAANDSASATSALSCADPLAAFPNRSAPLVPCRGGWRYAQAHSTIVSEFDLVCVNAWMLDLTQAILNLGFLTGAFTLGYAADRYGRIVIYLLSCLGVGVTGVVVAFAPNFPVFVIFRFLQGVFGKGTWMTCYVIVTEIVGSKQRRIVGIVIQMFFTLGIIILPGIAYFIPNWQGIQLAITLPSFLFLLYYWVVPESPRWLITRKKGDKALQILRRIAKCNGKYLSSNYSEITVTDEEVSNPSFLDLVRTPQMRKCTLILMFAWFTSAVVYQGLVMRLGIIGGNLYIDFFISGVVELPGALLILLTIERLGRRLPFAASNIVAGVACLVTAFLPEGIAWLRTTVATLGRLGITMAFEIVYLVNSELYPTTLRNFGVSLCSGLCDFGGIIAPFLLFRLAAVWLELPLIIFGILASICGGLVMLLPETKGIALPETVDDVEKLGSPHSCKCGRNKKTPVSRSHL
Method: (§1) The previously described fluorescent substrate of organic cation transporters, 4-(4-dimethylaminostyryl)-N-methylpyridinium (ASP^+), was used to determine the function of OCT1 and OCT3 by flow cytometry in the absence and the presence of bendamustine and selected bendamustine esters. HEK293 cells expressing the transporter of interest were trypsinized and washed twice with PBS, prior to re-suspension of 0.5 · 10^6 cells in 500 μL of PBS containing 2% (v/v) FCS. The cells were incubated with ASP^+ (100 μM stock solution in PBS containing 10% DMSO) for 5 minutes, allowing for cellular accumulation, and subsequently analyzed with a FACSCalibur flow cytometer. ASP^+ was excited at 488 nm and the fluorescence was measured using a 530/30 nm and a 585/42 band-pass filter. At least 1 · 10^4 single cells were analyzed by appropriate FSC/SSC gating.
(§2) The cells were pre-incubated with the respective test compound at different concentrations at room temperature for 10 minutes. Afterwards, ASP^+ was added to a final concentration of 1 μM, and the samples were incubated at 37°C in the dark for 5 minutes. Subsequently, the cells were washed, re-suspended in ice-cold PBS/FCS and stored on ice in the dark until measurement.
(§3) The normalized mean fluorescence intensities of the OCT expressing cells, set to 100% in the absence of an inhibitor, were calculated by subtracting the mean fluorescence intensity of unspecific ASP^+ uptake into HEK-Co control cells. The normalized fluorescence intensities in the presence of an inhibitor were plotted against the logarithm of the concentrations of the test compounds to calculate IC50 values. The “log (inhibitor) vs. normalized response-variable slope” equation of GraphPad Prism 5.01 was used for this purpose.

[2] = test system: Jurkat cells; assay: Detection of apoptosis (annexin V/propidium iodide assay); format: cell-based, human
Method: Apoptosis was determined by incubating proliferating Jurkat cells with medium containing 1, 2, 4 or 5 at a concentration of 10 μM or 0.1% of DMSO (untreated control). After different periods of incubation (6, 24, 48 hours), samples were analyzed using the Annexin V-FITC apoptosis detection kit l (BD Biosciences, Heidelberg, Germany) according to the manufacturer’s protocol using 10^6 cells/mL. Cells were analyzed using a FACSCalibur flow cytometer (BD Biosciences, Heidelberg, Germany). The compensation was performed for each experiment with annexin V-FITC (530/30 BP filter) and propidium iodide (585/42 BP filter), respectively. At least 1 · 10^4 events were registered per sample and debris as well as cell aggregates were excluded by forward (FSC) versus side scatter (SSC) gates. Raw data were analyzed using FlowJo V10 software (Treestar Inc., Ashland, OR, USA).

[3] = test system: LNCaP cells (prostate cancer); assay: Chemosensitivity assay (MTT-assay), LNCaP; format: cell-based, human; conditions: 96 hours of incubation, mean ± SEM
Method: (§4) Depending on the characteristics of the cells, two different assays were performed. For adherently growing cells (HaCaT, HT-29, NCI-H460, SK-MEL-3, MG-63, Capan-1), cytotoxic and cytocidal effects were determined in the crystal violet assay, whereas for loosely adherent cells (LNCaP, SK-ES-1) and cells growing in suspension (HEL 92.1.7, Jurkat, U-937) the MTT-assay was used with minor modifications. In brief, 1.5 · 10^3 (HaCaT, HT-29, NCI-H460, SK-MEL-3, MG-63, Capan-1) or 5 · 10^3 (Jurkat, U-937, HEL92.1.7, LNCaP, SK-ES-1) cells per well were seeded into flat-bottom 96-well plates (Sarstedt, Nümbrecht, Germany). All compounds were used as solutions prepared in DMSO and tested at final concentrations (8 replicates per concentration) of 1, 3, 10, 30 and 50 μM. In case of the vehicle control and test compounds, the final DMSO concentration amounted to 0.1%. Absorbance was measured at 580 nm in a 96-well plate reader (GENios pro microplate reader, Tecan, Salzburg, Austria). Effects were quantified as previously described for both assays.

[4] = molecular target: T2, OCT1 (Homo sapiens, UniProt O15245); assay: Flow cytometric ASP+-uptake inhibition, HEK-OCT1; format: cell-based; conditions: for IC50: IC50, inhibition of ASP+-uptake, HEK-OCT1, 1 μM ASP+, ± SEM (N = 3)
T2 construct: containing the full length SLC22A1 cDNA (NM_003057) encoding the human OCT1 protein; expressed in transfected cells
T2 sequence (O15245 1-554): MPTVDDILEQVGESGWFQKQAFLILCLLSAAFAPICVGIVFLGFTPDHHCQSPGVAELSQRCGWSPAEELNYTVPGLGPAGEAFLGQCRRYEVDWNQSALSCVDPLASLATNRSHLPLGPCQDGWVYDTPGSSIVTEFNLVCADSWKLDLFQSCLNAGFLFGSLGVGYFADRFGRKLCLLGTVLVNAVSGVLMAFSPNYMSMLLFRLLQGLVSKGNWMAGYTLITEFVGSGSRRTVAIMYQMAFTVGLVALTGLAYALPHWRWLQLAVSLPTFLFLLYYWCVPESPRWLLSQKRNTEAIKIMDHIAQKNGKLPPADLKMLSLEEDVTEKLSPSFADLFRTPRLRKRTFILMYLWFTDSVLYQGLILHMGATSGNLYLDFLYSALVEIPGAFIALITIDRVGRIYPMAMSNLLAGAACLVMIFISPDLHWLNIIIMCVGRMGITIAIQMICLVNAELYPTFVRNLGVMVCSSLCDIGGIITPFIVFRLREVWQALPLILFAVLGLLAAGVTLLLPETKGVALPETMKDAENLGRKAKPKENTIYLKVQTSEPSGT
Method: as §1, §2, §3

[5] = test system: NCI-H460 cells (large cell lung cancer); assay: Chemosensitivity assay (crystal violet assay), NCI-H460; format: cell-based, human; conditions: 96 hours of incubation, mean ± SEM
Method: as §4

Cn1c(CCCC(=O)O)nc2cc(N(CCCl)CCCl)ccc21 [Compound 1, bendamustine, reference compound]
IC50 [1]: > 200 µM | inhibition at 200 µM ([1]; read-out: inhibition of OCT3): 37% | effect on apoptosis compared to the control cells ([2]; 10 μM, regardless of the period of incubation (6, 24, 48 hours)): no effect | IC50 [3]: only very weakly active | IC50 ([3]; Homo sapiens, read-out: IC50): 77900 ± 5600 nM | IC50 [4]: > 200 µM | inhibition at 5 min, 200 µM ([4]; human, 200 μM (highest examined concentration)): 35% | IC50 [5]: only very weakly active | IC50 ([5]; Homo sapiens, read-out: IC50): 90 ± 4.3 µM

COC(=O)CCCc1nc2cc(N(CCCl)CCCl)ccc2n1C [Compound 2]
IC50 [1]: 5.1 ± 1.4 µM | potency relative to TPA at OCT3 [1]: approximately four | fraction of early apoptotic cells ([2]; 10 μM, 24 hours): approximately 10% | fraction of early apoptotic cells ([2]; 10 μM, 48 hours): 15% | fraction of secondary necrotic cells ([2]; 10 μM, 48 hours): 20–25% | IC50 ([3]; Homo sapiens, read-out: IC50): 950 ± 150 nM | IC50 [4]: 11.3 ± 1.9 µM | IC50 ([5]; Homo sapiens, read-out: IC50): 4.8 ± 0.3 µM

Cn1c(CCCC(=O)OCCN2CCOCC2)nc2cc(N(CCCl)CCCl)ccc21 [Compound 4]
IC50 [1]: 5.1 ± 0.02 µM | potency relative to TPA at OCT3 [1]: approximately four | fraction of early apoptotic cells ([2]; 10 μM, 24 hours): approximately 10% | fraction of early apoptotic cells ([2]; 10 μM, 48 hours): 15% | fraction of secondary necrotic cells ([2]; 10 μM, 48 hours): 20–25% | IC50 ([3]; Homo sapiens, read-out: IC50): 2200 ± 100 nM | IC50 [4]: 10.1 ± 2.5 µM | IC50 ([5]; Homo sapiens, read-out: IC50): 9.7 ± 1.3 µM

Cn1c(CCCC(=O)OCCN2CCCC2)nc2cc(N(CCCl)CCCl)ccc21 [Compound 5]
IC50 [1]: 3.41 ± 0.16 µM | potency relative to TPA at OCT3 [1]: approximately four | fraction of early apoptotic cells ([2]; 10 μM, 6 hours): ~ 2.5% | cells either early apoptotic or secondary necrotic ([2]; 10 μM, 24 hours): Approximately 50% | fraction of early apoptotic cells ([2]; 10 μM, 24 hours): 20% | fraction of secondary necrotic cells ([2]; 10 μM, 24 hours): 30% | fraction of secondary necrotic cells ([2]; 10 μM, 48 hours): 70% | viability at 10 µM ([2]; Homo sapiens, Jurkat, 48 h, two days after treatment, read-out: viable cells): ~15% | IC50 ([3]; Homo sapiens, read-out: IC50): 500 ± 80 nM | IC50 [4]: 0.35 ± 0.03 µM | potency factor relative to TPA at OCT1 ([4]; from IC50 values): approximately 20 | IC50 ([5]; Homo sapiens, read-out: IC50): 0.9 ± 0.01 µM
